In brackets after ≈: the same amount, converted by molar mass. Several values for one entry are separate records, joined by “and”; a condition that tells them apart may be missing. Equal values may be shown once.
Assays:
Assay in all cases: ≥ marks a high value that may be exact or a test limit, other limits are often not marked, values filed in µg/mL are converted to µM
[1] = tested on: Candida albicans SC5314
[2] = tested on: Candida glabrata ATCC 15126
[3] = tested on: Candida krusei ATCC 6258
[4] = tested on: Candida parapsilosis ATCC 22019
[5] = tested on: Candida tropicalis ATCC 13803
[6] = tested on: Acinetobacter baumannii ATCC 19606
[7] = tested on: Candida albicans ATCC 90028
[8] = tested on: Enterococcus faecalis ATCC 29212
[9] = tested on: Escherichia coli ATCC 25922
[10] = tested on: Klebsiella pneumoniae ATCC 13883
[11] = tested on: Listeria ivanovii
[12] = tested on: Pseudomonas aeruginosa ATCC 27853
[13] = tested on: Staphylococcus aureus ATCC 25923
[14] = tested on: Staphylococcus aureus ATCC BAA-44
[15] = tested on: Escherichia coli NBRC 14237
[16] = tested on: Micrococcus luteus NBRC 12708
[17] = tested on: Saccharomyces cerevisiae NBRC 10217
[18] = tested on: Staphylococcus aureus NBRC 12732
[19] = tested on: Candida albicans C627
[20] = tested on: Enterococcus faecium mic80
[21] = tested on: Escherichia coli ESBL 63103
[22] = tested on: Pseudomonas aeruginosa 213
[23] = tested on: Pseudomonas aeruginosa H103
[24] = tested on: Pseudomonas aeruginosa LES400
[25] = tested on: Staphylococcus aureus C623
[26] = tested on: Enterococcus faecium ATCC 700221
[27] = tested on: Klebsiella pneumoniae ATCC 700603
[28] = tested on: Staphylococcus epidermidis ATCC 35984
[29] = tested on: Escherichia coli CVCC 245
[30] = tested on: Escherichia coli K88
[31] = tested on: Listeria monocytogenes CVCC 1599
[32] = tested on: Micrococcus luteus CVCC 28001
[33] = tested on: Staphylococcus aureus CMCC 26003
[34] = tested on: Bacillus subtilis CMCC 63501
[35] = tested on: Escherichia coli UB1005
[36] = tested on: Pseudomonas aeruginosa PAO1
[37] = tested on: Salmonella enterica subsp. enterica serovar Pullorum C79-13
[38] = tested on: Salmonella enterica subsp. enterica serovar Typhimurium ATCC 14028
[39] = tested on: Salmonella enterica subsp. enterica serovar Typhimurium C77-31
[40] = tested on: Salmonella typhimurium ATCC 7731
[41] = tested on: Staphylococcus aureus ATCC 29213
[42] = tested on: Staphylococcus epidermidis ATCC 12228
[43] = tested on: Escherichia coli DH5alpha
[44] = tested on: Staphylococcus xylosus

For `CC(C)C[C@H](NC(=O)[C@H](CC(C)C)NC(=O)[C@H](Cc1ccc(O)cc1)NC(=O)[C@H](CCCCN)NC(=O)[C@@H](N)CS)C(=O)N[C@@H](CCCN=C(N)N)C(=O)N[C@@H](Cc1c[nH]c2ccccc12)C(=O)N[C@@H](CCCN=C(N)N)C(=O)O` [CKYLLRWR], the MIC [1] was ≥ 87.9 µM, the MIC [2] was 22 µM (≈ 25 µg/mL) and the MIC [3] was ≥ 44 µM. For the same molecule, the MIC [4] was ≥ 87.9 µM and the MIC [5] was ≥ 44 µM.
`CC(C)C[C@H](NC(=O)[C@H](CCCN=C(N)N)NC(=O)CNC(=O)[C@H](Cc1ccccc1)NC(=O)[C@@H](N)Cc1ccccc1)C(=O)N[C@@H](CCCCN)C(=O)N[C@@H](CO)C(=O)N[C@H](C(=O)N[C@@H](Cc1c[nH]c2ccccc12)C(=O)N[C@@H](CO)C(=O)N[C@@H](C)C(=O)N[C@H](C(=O)N[C@@H](CCCCN)C(=O)N[C@@H](Cc1cnc[nH]1)C(=O)NCC(=O)N[C@@H](Cc1c[nH]c2ccccc12)C(=O)N[C@@H](CCCCN)C(=O)N[C@@H](C)C(=O)N[C@@H](C)C(=O)N[C@@H](CCCCN)C(=O)N[C@@H](CO)C(=O)N[C@@H](CCCN=C(N)N)C(=O)O)C(C)C)C(C)C` [FFGRLKSVWSAVKHGWKAAKSR] was tested, and the MIC [6] was 3 µM (≈ 7.64 µg/mL), the MIC [7] was 25 µM (≈ 63.7 µg/mL) and the MIC [4] was ≥ 50 µM. It also gave an MIC [8] of 12.5 µM (≈ 31.8 µg/mL), an MIC [9] of 4.24 µM (≈ 10.8 µg/mL) and an MIC [10] of 6 µM (≈ 15.3 µg/mL). It also gave an MIC [11] of 3 µM (≈ 7.64 µg/mL), an MIC [12] of 6 µM (≈ 15.3 µg/mL) and an MIC [13] of 3 µM (≈ 7.64 µg/mL). For the same molecule, the MIC [14] was 3 µM (≈ 7.64 µg/mL).
An MIC [15] of 3.12 µM (≈ 5.93 µg/mL), an MIC [16] of 6.25 µM (≈ 11.9 µg/mL) and an MIC [17] of 25 µM (≈ 47.5 µg/mL) were found for `CC[C@H](C)[C@H](NC(=O)[C@H](CC(C)C)NC(=O)[C@@H]1CCCN1C(=O)[C@H](CC(C)C)NC(=O)[C@H](CCCCN)NC(=O)[C@H](CCCCN)NC(=O)[C@H](CC(C)C)NC(=O)[C@H](CC(C)C)NC(=O)[C@H](C)NC(=O)[C@@H](NC(=O)[C@H](Cc1ccccc1)NC(=O)CN)C(C)C)C(=O)N[C@@H](CC(C)C)C(=O)N[C@@H](CCCCN)C(=O)N[C@@H](Cc1cnc[nH]1)C(=O)N[C@@H](CC(C)C)C(=O)N1CCC[C@H]1C(N)=O` [GFVALLKKLPLILKHLP] in this work. The MIC [18] was 3.12 µM (≈ 5.93 µg/mL).
For `CC[C@H](C)[C@H](N)C(=O)N[C@@H](Cc1c[nH]c2ccccc12)C(=O)N[C@@H](CCCCN)C(=O)N[C@@H](CCCN=C(N)N)C(=O)N[C@@H](Cc1c[nH]c2ccccc12)C(=O)N[C@@H](Cc1c[nH]c2ccccc12)C(=O)N[C@@H](Cc1c[nH]c2ccccc12)C(=O)N[C@@H](CCCCN)C(=O)N[C@@H](CCCN=C(N)N)C(=O)O` [IWKRWWWKR], the MIC [19] was 22.1 µM (≈ 32 µg/mL), the MIC [20] was ≥ 88.6 µM and the MIC [21] was ≥ 44.3 µM. The MIC [22] was ≥ 88.6 µM, the MIC [23] was ≥ 88.6 µM and the MIC [24] was ≥ 88.6 µM. For the same molecule, the MIC [13] was 88.6 µM (≈ 128 µg/mL) and the MIC [25] was ≥ 44.3 µM.
With `CC(C)C[C@H](NC(=O)[C@H](Cc1cnc[nH]1)NC(=O)[C@H](Cc1ccc(O)cc1)NC(=O)[C@H](CCCN=C(N)N)NC(=O)[C@H](Cc1ccc(O)cc1)NC(=O)[C@H](CCCCN)NC(=O)[C@@H](N)CCCCN)C(=O)N[C@@H](CCCCN)C(=O)N1CCC[C@H]1C(=O)N[C@@H](Cc1ccccc1)C(=O)N[C@@H](CS)C(=O)N[C@@H](CCCCN)C(=O)N[C@@H](CCCCN)C(=O)O` [KKYRYHLKPFCKK] the MIC [6] was > 294 µM, the MIC [8] was 294 µM (≈ 512 µg/mL) and the MIC [26] was ≥ 147 µM. The MIC [9] was 147 µM (≈ 256 µg/mL), the MIC [27] was > 294 µM and the MIC [12] was > 294 µM. For the same molecule, the MIC [13] was 294 µM (≈ 512 µg/mL) and the MIC [28] was ≥ 73.6 µM.
An MIC [29] of 2.41 µM (≈ 7 µg/mL), an MIC [30] of 2.75 µM (≈ 8 µg/mL) and an MIC [31] of 0.688 µM (≈ 2 µg/mL) were found for `CC[C@H](C)[C@H](NC(=O)[C@H](CCCCN)NC(=O)[C@H](CCCCN)NC(=O)[C@H](Cc1ccccc1)NC(=O)[C@H](CC(C)C)NC(=O)[C@H](CCCCN)NC(=O)[C@H](Cc1c[nH]c2ccccc12)NC(=O)[C@@H](N)CCCCN)C(=O)N[C@@H](Cc1ccccc1)C(=O)N[C@@H](CCCCN)C(=O)N[C@@H](CCCN=C(N)N)C(=O)N[C@H](C(=O)N[C@H](C(=O)N[C@@H](CCC(N)=O)C(=O)N[C@@H](CCCN=C(N)N)C(=O)N[C@H](C(=O)N[C@@H](CCCCN)C(=O)N[C@@H](CC(=O)O)C(=O)N[C@@H](Cc1ccccc1)C(=O)N[C@@H](CC(C)C)C(=O)N[C@@H](CCCN=C(N)N)C(=O)N[C@@H](CC(N)=O)C(=O)O)[C@@H](C)CC)C(C)C)[C@@H](C)CC` [KWKLFKKIFKRIVQRIKDFLRN] in this work. It also gave an MIC [32] of 5.51 µM (≈ 16 µg/mL), an MIC [13] of 0.688 µM (≈ 2 µg/mL) and an MIC [33] of 2.41 µM (≈ 7 µg/mL).
`CC[C@H](C)[C@H](NC(=O)[C@H](CCCCN)NC(=O)[C@H](CCCCN)NC(=O)[C@H](Cc1ccccc1)NC(=O)[C@H](CC(C)C)NC(=O)[C@H](CCCCN)NC(=O)[C@H](Cc1c[nH]c2ccccc12)NC(=O)[C@@H](N)CCCCN)C(=O)O` [KWKLFKKI] was tested, and the MIC [34] was ≥ 64 µM, the MIC [8] was > 64 µM and 128 µM and the MIC [9] was 64 µM and 128 µM. The MIC [35] was ≥ 128 µM, the MIC [12] was > 64 µM and 128 µM and the MIC [36] was > 64 µM. The MIC [37] was ≥ 128 µM, the MIC [38] was > 64 µM and 128 µM and the MIC [39] was ≥ 128 µM. The MIC [40] was ≥ 64 µM, the MIC [41] was > 64 µM and 128 µM and the MIC [42] was > 64 µM and 128 µM.
An MIC [43] of 4 µM (≈ 6.76 µg/mL) and an MIC [44] of 0.5 µM (≈ 0.846 µg/mL) were found for `NC(N)=NCCC[C@H](NC(=O)[C@H](CCCN=C(N)N)NC(=O)[C@H](CCCN=C(N)N)NC(=O)[C@H](Cc1ccccc1)NC(=O)[C@H](Cc1ccccc1)NC(=O)[C@H](Cc1ccccc1)NC(=O)[C@H](Cc1ccccc1)NC(=O)[C@H](Cc1ccccc1)NC(=O)[C@H](CCCN=C(N)N)NC(=O)[C@H](CCCN=C(N)N)NC(=O)[C@@H](N)CCCN=C(N)N)C(=O)O` [RRRFFFFFRRR] in this work.
